# From ChEMBL document CHEMBL5518235, “Identification of Novel Series of Potent and Selective Relaxin Family Peptide Receptor 1 (RXFP1) Agonists” (J Med Chem, 2024)
# What was measured:
# [1] = Metabolic stability in human liver microsomes assessed as intrinsic clearance at 1 uM incubated for 30 mins in presence of NADPH by LC-MS/MS analysis; format: ADME, Microsome; details: liver microsomes, read-out: CLH
# [2] = biological target: T1, Relaxin receptor 1 (Homo sapiens) (UniProt Q9HBX9); test: Agonist activity at human RXFP1 expressed in T-Rex-CHO-K1 cells assessed as stimulation of cAMP production by measuring maximal efficacy at 50 uM incubated for 45 mins by HTRF assay relative to control; format: functional, cell-based
# T1 sequence (whole entry): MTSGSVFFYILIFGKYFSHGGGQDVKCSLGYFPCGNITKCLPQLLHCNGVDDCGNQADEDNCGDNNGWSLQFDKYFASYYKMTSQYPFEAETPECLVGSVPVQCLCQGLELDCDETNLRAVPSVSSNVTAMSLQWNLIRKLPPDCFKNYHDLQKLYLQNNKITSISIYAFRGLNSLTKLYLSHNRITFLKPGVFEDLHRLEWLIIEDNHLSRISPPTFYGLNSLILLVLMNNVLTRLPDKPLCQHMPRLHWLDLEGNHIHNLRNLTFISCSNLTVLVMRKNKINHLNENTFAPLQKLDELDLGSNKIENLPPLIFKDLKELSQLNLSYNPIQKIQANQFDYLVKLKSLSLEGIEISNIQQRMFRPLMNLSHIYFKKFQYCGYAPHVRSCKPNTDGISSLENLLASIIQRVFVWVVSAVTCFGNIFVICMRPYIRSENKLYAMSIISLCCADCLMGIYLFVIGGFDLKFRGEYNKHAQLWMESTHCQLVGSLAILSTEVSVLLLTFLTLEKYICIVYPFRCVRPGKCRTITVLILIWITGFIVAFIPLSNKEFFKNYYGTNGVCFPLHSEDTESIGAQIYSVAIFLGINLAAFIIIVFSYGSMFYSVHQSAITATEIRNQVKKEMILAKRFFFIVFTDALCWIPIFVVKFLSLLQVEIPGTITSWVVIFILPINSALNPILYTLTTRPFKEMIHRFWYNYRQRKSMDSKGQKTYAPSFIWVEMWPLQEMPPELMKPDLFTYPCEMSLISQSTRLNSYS
# [3] = Lipophilicity, logD of the compound in 1-octanol and phosphate buffer at pH 7.4 incubated for 3 hrs by shake flask method based LC/MS/MS analysis; format: physicochemical; details: 1-octanol/phosphate buffer, pH 7.4
# Relaxin receptor 1 = biological target: T2, Relaxin receptor 1 (Homo sapiens, UniProt Q9HBX9); test: Agonist activity at human RXFP1 expressed in T-Rex-CHO-K1 cells assessed as stimulation of cAMP production incubated for 45 mins by HTRF assay; format: functional, cell-based
# T2 sequence (Q9HBX9 whole entry): T1 sequence (whole entry)
# [4] = Metabolic stability in human liver microsomes assessed as unbound intrinsic clearance at 1 uM incubated for 30 mins in presence of NADPH by LC-MS/MS analysis; format: ADME, Microsome; details: 0.5 h
# [5] = Metabolic stability in cryopreserved human hepatocytes assessed as intrinsic clearance measured per 10^6 cells at 1 uM after 120 mins by LC-MS/MS analysis; format: ADME, cell-based, Hepatocyte; details: cryopreserved hepatocytes, read-out: CLH
# [6] = Metabolic stability in cryopreserved human hepatocytes assessed as unbound intrinsic clearance measured per 10^6 cells at 1 uM measured after 120 mins by LC-MS/MS analysis; format: ADME, cell-based, Hepatocyte; details: 2 h
Compound,microsomal CLint at 1 µM [1] [µL/min/mg],Emax ([2]; filed as agonist) [%],logD at 3 h [3],EC50 (Relaxin receptor 1) [µM],CL free [4],hepatocyte CLint at 1 µM [5] [µL/min/1e6 cells],CL free [6] [µL/min],Emax [2] [%]
COc1cc(F)c(OCCCCC(=O)O)cc1C(=O)N[C@H]1[C@@H](C(=O)Nc2cccc(S(=O)(=O)C(F)(F)F)c2)[C@@H]2C=C[C@H]1C2 (racemic),,119,2.9,0.251,,16,89,
COc1cc(F)c(OCCCC(=O)O)cc1C(=O)N[C@H]1[C@@H](C(=O)Nc2cccc(S(=O)(=O)C(F)(F)F)c2)[C@@H]2C=C[C@H]1C2 (racemic),,114,2.5,1.58,,13,51,
COc1ccccc1C(=O)N[C@H]1[C@@H](C(=O)Nc2cccc(S(=O)(=O)C(F)(F)F)c2)[C@H]2C=C[C@@H]1C2 (racemic),140,,3.5,> 50.1,0.35 10^3uL/min/mg,,,37
COc1cnc(-c2ccc(C(=O)O)cc2)cc1C(=O)N[C@H]1[C@@H](C(=O)Nc2cccc(S(=O)(=O)C(F)(F)F)c2)[C@@H]2C=C[C@H]1C2 (racemic),7,117,2.3,3.98,19 µL/min/mg,,,
COc1ccccc1C(=O)N[C@@H]1CCC[C@@H]1C(=O)Nc1cccc(S(=O)(=O)C(F)(F)F)c1 (racemic),174,74,4.9,> 50.1,2.4 10^3uL/min/mg,,,
COc1cc(F)c(Oc2ccc(C(=O)O)cc2)cc1C(=O)N[C@H]1[C@@H](C(=O)Nc2cccc(S(=O)(=O)C(F)(F)F)c2)[C@@H]2C=C[C@H]1C2 (racemic),,103,3.6,0.316,,7.2,480,
COc1cc(F)c(O[C@H]2CC[C@@](C)(C(=O)O)CC2)cc1C(=O)N[C@@H]1C[C@@H](OC)C[C@@H]1C(=O)Nc1cccc(S(=O)(=O)C(F)(F)F)c1,,110,3,0.0251,,6.2,26,
COc1cc(F)c(O[C@H]2CC[C@@H](C(=O)O)CC2)cc1C(=O)N[C@@H]1[C@H](C(=O)Nc2ccc(F)c(C(F)(F)F)c2)[C@H]2C=C[C@@H]1C2,,107,3.6,2.57,,4.8,42,
COc1cc(F)c(O[C@H]2CC[C@@H](C(=O)O)CC2)cc1C(=O)N[C@H]1[C@@H](C(=O)Nc2ccc(F)c(S(=O)(=O)C(F)(F)F)c2)[C@@H]2C=C[C@H]1C2,,114,,0.0158,,7.5,32,
COc1cc(F)c(O[C@H]2CC[C@](C)(C(=O)O)CC2)cc1C(=O)N[C@@H]1[C@H]2CC[C@H](C2)[C@@H]1C(=O)Nc1cccc(S(=O)(=O)C(F)(F)F)c1,,103,4.2,0.1,,10,222,
COc1cc(F)c(O[C@H]2CC[C@@](C)(C(=O)O)CC2)cc1C(=O)N[C@@H]1[C@H]2CC[C@H](C2)[C@@H]1C(=O)Nc1cccc(S(=O)(=O)C(F)(F)F)c1,,109,4.15,0.002,,15,306,
COc1cc(F)c(O[C@H]2CC[C@@H](C(=O)O)CC2)cc1C(=O)N[C@@H]1[C@H]2CC[C@H](C2)[C@@H]1C(=O)Nc1cccc(C(F)F)c1,,104,2.8,,,11,51,
COc1cc(F)c(C(=O)N2CCC(C)(C(=O)O)CC2)cc1C(=O)N[C@H]1[C@@H](C(=O)Nc2cccc(S(=O)(=O)C(F)(F)F)c2)[C@@H]2C=C[C@H]1C2 (racemic),,111,1.9,3.16,,3,6.3,

# More lines, now with the values ahead:
microsomal CLint at 1 µM [1] [µL/min/mg],Emax ([2]; filed as agonist) [%],logD at 3 h [3],EC50 (Relaxin receptor 1) [µM],CL free [4],hepatocyte CLint at 1 µM [5] [µL/min/1e6 cells],CL free [6] [µL/min],Emax [2] [%],Compound
28,105,3.7,0.2,1.1 10^3uL/min/mg,,,,COc1cc(F)c(-c2ccc(C[C@H](C(=O)O)N(C)C)cc2)cc1C(=O)N[C@@H]1[C@H]2CC[C@H](C2)[C@@H]1C(=O)Nc1cccc(S(=O)(=O)C(F)(F)F)c1
,98,2.5,7.94,,7.6,25,,COc1cc(F)c(O[C@H]2CC[C@@H](C(=O)O)CC2)cc1C(=O)N[C@@H]1[C@H]2CC[C@H](C2)[C@@H]1C(=O)Nc1ccccc1
> 300,113,> 3,1.58,> 14 10^3uL/min/mg,,,,COc1cc(F)ccc1C(=O)N[C@@H]1[C@H](C(=O)Nc2cccc(S(=O)(=O)C(F)(F)F)c2)[C@H]2C=C[C@@H]1C2 (racemic)
13,111,1.7,0.631,65 µL/min/mg,,,,COc1cc(F)c(-c2ncc(C(=O)O)s2)cc1C(=O)N[C@H]1[C@@H](C(=O)Nc2cccc(S(=O)(=O)C(F)(F)F)c2)[C@@H]2C=C[C@H]1C2 (racemic)
> 300,109,> 4.2,0.794,> 25 10^3uL/min/mg,,,,COc1cc(F)c(F)cc1C(=O)N[C@@H]1[C@H](C(=O)Nc2cccc(S(=O)(=O)C(F)(F)F)c2)[C@H]2C=C[C@@H]1C2 (racemic)
,42,1.6,> 50.1,,,,,COc1cc(F)c(O[C@H]2CC[C@@H](C(=O)O)CC2)cc1C(=O)N[C@@H]1[C@H]2CC[C@H](C2)[C@@H]1C(=O)Nc1ccncc1
,105,4.35,0.00316,,13,283,,COc1cc(F)c(O[C@H]2CC[C@@](C)(C(=O)O)CC2)cc1C(=O)N[C@@H]1CCC[C@@H]1C(=O)Nc1ccc(F)c(S(F)(F)(F)(F)F)c1
300,100,4.9,3.16,12 10^3uL/min/mg,,,,COc1ccccc1C(=O)N[C@@H]1[C@H](C(=O)Nc2cccc(S(=O)(=O)C(F)(F)F)c2)[C@H]2C=C[C@@H]1C2 (racemic)
,91,3.5,3.98,,10,91,,COc1cc(F)c(O[C@H]2CC[C@@H](C(=O)O)CC2)cc1C(=O)N[C@H]1[C@H](C(=O)Nc2ccc(F)c(C(F)(F)F)c2)[C@@H]2C=C[C@H]1C2
> 300,87,4.7,1.74,> 38 10^3uL/min/mg,,,,COc1ccc(-c2cccnc2)cc1C(=O)N[C@@H]1[C@H](C(=O)Nc2cccc(S(=O)(=O)C(F)(F)F)c2)[C@H]2C=C[C@@H]1C2 (racemic)
,109,3.25,0.0631,,11,100,,COc1cc(F)c(O[C@H]2CC[C@@H](C(=O)O)CC2)cc1C(=O)N[C@H]1[C@@H](C(=O)Nc2cccc(S(=O)(=O)C(F)(F)F)c2)[C@@H]2C=C[C@H]1C2
,104,2.6,0.126,,6.3,23,,COc1cc(F)c(O[C@H]2CC[C@@](C)(C(=O)O)CC2)cc1C(=O)N[C@@H]1COC[C@@H]1C(=O)Nc1cccc(S(=O)(=O)C(F)(F)F)c1
,99,,,,,,,COc1cc(F)c(-c2ccc(C(=O)O)cc2)cc1C(=O)N[C@H]1[C@@H](C(=O)Nc2cccc(S(=O)(=O)C(F)(F)F)c2)[C@@H]2C=C[C@H]1C2
,81,3,2,,8.4,84,,COc1cc(F)c(O[C@H]2CC[C@H](C(=O)O)CC2)cc1C(=O)N[C@H]1[C@@H](C(=O)Nc2cccc(S(=O)(=O)C(F)(F)F)c2)[C@@H]2C=C[C@H]1C2
